Values of other authors in patent US7294637B2 (Sepracor, Inc., priority 2000, dated 2007).

Assays:
rats and monkeys = settings: monkeys; cited from earlier work
[1] = rodents, ex vivo binding; cited from earlier work

## CCC(=O)[C@H]1[C@@H](c2ccc(C)cc2)C[C@@H]2CC[C@H]1N2C [PPT, 2β-propanoyl-3β-(4-tolyl)-tropane]
Rats and monkeys
  addictiveness: not addictive
  decrease of self-administered cocaine intake: 70%
[1]
  time of onset after administration: ca. 30 minutes
